Results taken from patent US20210393549A1, “New use of R-enantiomer of adrenergic beta 2 receptor agonists for treatment of inflammatory bowel disease and its extra intestinal manifestations” (priority 2018, published 2021).
Read-outs that look alike come from different tables or passages of the source.

Assays:
[1] = test system: DSS induced acute colitis; conditions: for Hist score (histological score): epithelium 0-4 plus infiltration 0-4; for Hist score (histological score) / Col Length (colon length): tenth day; for Hist score (histological score) / FOB (fecal occult blood) / Weight / DAI (disease active index) / Col Length (colon length): 1 mg/kg (R-B, S-B 10 mg/kg; RS-C 2 mg/kg); for Hist score (histological score) / FOB (fecal occult blood) / Weight / Col Length (colon length): mean ± SD; for FOB (fecal occult blood): grade 0, 2, 4; for FOB (fecal occult blood) / Weight / Col Length (colon length): i.g. daily 8 days; for DAI (disease active index): score 0 to 12, i.g. daily 8 days from 2nd day of DSS, n=5; for colon histology (H&E), in words: Example 1, compared with untreated DSS mice
Source text: In one embodiment, IBD was induced in mice by add DSS into drink water for 7 days. […] (Cooper, S. et al., Clinic pathologic study of dextran sulfate sodium experimental murine colitis, Laboratory Investigation, vol. 69, no. 2, p. 238-249, 1993)
The mice were scarified at day 10th for anatomy and histology evaluations. […] Each of the above histological features was scored individually and added together which is then collectively expressed as “histological score”, for quantitative evaluation (Cooper, S. et al., above).
Male C57BL mice (8-10 weeks, 18-20 g) were grouped into control (drinking water only), DSS and DSS plus treatment groups (n=5). Acute colitis was induced by feeding mice with 2% (w/v) dextran sulfate sodium (DSS) (molecular mass 36-50 kDa) added to the drinking water given ad libitum for 7 days. At the end of seventh day, DSS was removed and animals received only drinking water for 2 days. The animals were euthanized for anatomical and histological examination at the tenth day after DSS ingestion.
R-salbutamol (R-S) (1 mg/kg, S-salbutamol (S-S) (1 mg/kg), R-terbutaline (R-T) (1 mg/kg), S-terbutaline (S-T) (1 mg/kg), R-bambuterol (10 mg/kg), S-bambuterol (S-B) (10 mg/kg), R-clenbuterol (R-C) (1 mg/kg), RS-clenbuterol (RS-C) (2 mg/kg) were administered i.g. daily, starting from the 2nd day of DSS induction for consecutive 8 days. Dexamethasone (Dex), 1 mg/kg) was used as a reference drug.
Evaluation of disease symptoms and histological changes Disease activity index (DAI): Animals were monitored daily for weight, water/food consumption, morbidity, stool consistency and fecal blood. […] The colon length was recorded as an indicator of inflammation. The entire colon was cut open longitudinally and gently flushed with sterile phosphate-buffered saline (PBS) to remove any traces of feces for pathology preparation. Colon segments were fixed in 10% neutral buffered formalin. Tissues were embedded in paraffin, sectioned, mounted on slides. H&E-stained paraffin section images were acquired. Pathological evaluation was conducted in a blinded manner.
Histological Score: the scores were given as follows: epithelium, 0=normal morphology, 1=loss of goblet cells, 2=loss of goblet cells in large areas, 3=loss of crypts, and 4=loss of crypts in large areas; and inflammation cells infiltration, 0=no infiltrate, 1=infiltrate around the crypt basis, 2=infiltrate reaching the muscularis mucosae, 3=extensive infiltration reaching the muscularis mucosae and thickening of the mucosa with abundant edema, and 4=infiltration of the submucosa. Data were presented as mean±the standard deviation (SD).

[2] = test system: DSS induced sub-acute colitis; type: in vivo; design: DAI (disease active index) / FOB (fecal occult blood) / Hist score (histological score): scale not given here; Weight / Col Length (colon length): unit not given here
Source text: This invention also disclosed the used of R-salbutamol for treatment of sub acute or chronic phases of IBD. In one embodiment, IBD was induced by DSS as mentioned above, along with the treatment of R-salbutamol, at day 7th, DSS was removed and replaced with drinking water for additional 2 weeks. The disease active index (DAI) of mice was examined and evaluated periodically. The mice were scarified for pathological and histological evaluations at day of 23rd. In DSS induce IBD mice, there were significant loss of weight and fecal occult blood at day 14th and 22nd. The overall condition of colitis was severe although there was slightly improvement comparing the day 7th. The colon-rector length was significant shortened, and histological score were significant higher from control. In mice with DSS induced colitis, there were significant mononuclear leucocytes infiltration, few newly grew crypts with architectural disarray, denegation of epithelia, mucosa aberrant. There was also deep mucosal lymphocytosis, destruction of lamina propria and sometimes, transmural inflammation.
Same as example 1, except • 1), Three weeks' study with one week treatment.
DSS and all the treatment was removed and replaced with drinking water at the end of 1st week. Mice were given drink water and food ad libitum for additional 2 weeks.

[3] = test system: DSS induced sub-acute colitis; assay: Prolonged (two weeks) treatment in DSS induced sub-acute colitis; type: in vivo, mice; conditions: evaluation at 23rd day, salbutamol 1 mg/kg, bambuterol 10 mg/kg
Source text: Same as example 2, except. 1), Two Weeks Treatment within a Three Weeks of Study
DSS was removed from drinking water at the end of 1st week. The treatments were started at 1st day for consecutive 14 days (2 weeks). Only drinking water given for the 3rd week. The evaluation and examination were made at 23rd day as did in example 1.

[4] = test system: knee joints (articular cartilage, meniscus); assay: Damage of knee joints in DSS induced IBD mice; type: in vivo; conditions: compared with untreated DSS mice
Source text: In one embodiment, in DSS induced IBD mice, there was also a damage of knee joints. The articular cartilage structure became thinner and partially destroyed. The chondrocytes were degenerated, decreased and clustered. The meniscuses were damaged and lost its structural integrity. In X-ray, the layer of articular cartilage was thinner and bone structure was decreased. […] The articular cartilage and bone structure increased toward normal.

[5] = test system: DNCB induced allergic contact dermatitis; assay: DNCB induced allergic contact dermatitis model (eczema); type: in vivo, mice; conditions: oral 8 days, indomethacin 5 mg/kg
Experimental: Mice was shaved at abdominal area DNCB (100 μL 0.5%) is dissolved and applied to the shaved skin to induce Atopica dermatitis for 2 consecutive days. At day 8th, DNCB was applied to both inner and outer surfaces of ears to induce eczema. Treatment of R-salbutamol and indomethacin were given orally at day 1st for consecutive 8 days. The mice were scarified at day 9th for examination and evaluation. Mice were divided into four groups (n=8), namely A, Control; B. Eczema (DNCB); C. Eczema plus R-Salbutamol of 0.05, 0.1 or 0.2 mg/kg; D. Eczema plus indomethacin of 5 mg/kg. The inflammation scores were evaluated according to swelling, erythema, scratch and thickness of both ears. [table]

[6] = test system: TNBS-induced colitis; assay: TNBS-induced colitis (model for Crohn's disease); type: in vivo, Male mice; conditions: TNBS treated mice
Source text: Male mice colitis was induced by rectal co-administration of ethanol and TNBS (Trinitrobenzenesulfonic acid). Severe colitis in mice that was characterized by weight loss and diarrhea. Histologically there were loss of normal structures, visible discrete epithelioid granuloma, multiple erosive lesions, massive transmural inflammation infiltration of lymphocytes, and the loss of goblet cells. […] There was significant alleviation of lesions, few inflammatory infiltration with growing crypts and recovery mucosa epithelia along the column. […] In addition, in TNBS treated colitis mice, there were perianal symptoms: erythema, abscesses and ulcers found in some mice, which may lead to perianal fissures or fistulas. […] The therapeutically effects of R-salbuterol, R-clenbuterol and R-bambuterol on the symptoms in TNBS induced Crohn's disease has never been reported in prior art.

[7] = acute DSS colitis, compared with untreated DSS mice
[8] = one week treatment, evaluation at 23rd day, R-S, S-S 1 mg/kg, R-B, S-B 10 mg/kg
[9] = sub-acute or chronic DSS colitis, compared with untreated DSS mice
[10] = R-Salbutamol 0.05, 0.1 or 0.2 mg/kg

| Molecule | Hist score (histological score) [1] | FOB (fecal occult blood) [1] | Weight [1] | DAI (disease active index) [1] | Col Length (colon length) [1] | histological index / histological score, in words [2, 9] | other results |
| --- | --- | --- | --- | --- | --- | --- | --- |
| C[C@@H]1C[C@H]2[C@@H]3CCC4=CC(=O)C=C[C@]4(C)[C@@]3(F)[C@@H](O)C[C@]2(C)[C@@]1(O)C(=O)CO [DEX, Dexamethasone] | 6 ± 0.5 | 2.5 ± 0.5 | 88 ± 2.4 | 7 | 7.1 ± 0.2 |  |  |
| CC(C)(C)NCC(O)c1cc(Cl)c(N)c(Cl)c1 (stereo not drawn) [RS-C, RS-clenbuterol] | 6 ± 0.5 | 4 ± 0.1 | 87 ± 2 | 10 | 6.5 ± 0.2^ |  | DAI, in words [1, 7]: much less improvement than DSS mice treated with R-clenbuterol; histological score, in words [1, 7]: better than DSS untreated but worse than R-enantiomer treated mice |
| CN(C)C(=O)Oc1cc(OC(=O)N(C)C)cc([C@H](O)CNC(C)(C)C)c1 [S-B, S-bambuterol] | 7.5 ± 1^ | 2.5 ± 0.5 | 81 ± 3.2 | 12 | 6 ± 0.6 | markedly higher than untreated DSS mice | colon histology (H&E), in words [1]: no signs of improvements; Col Length (colon length) [2, 8]: 6.8 ± 0.1; DAI (disease active index) [2, 8]: 12; FOB (fecal occult blood) [2, 8]: 3.9 ± 0.1; Hist score (histological score) [2, 8]: 6.9 ± 1^; Weight [2, 8]: 96 ± 1.1; length of colon-rectors, in words ([2]; sub-acute DSS colitis, compared with untreated DSS mice): shorter; body weights, in words ([2]; sub-acute or chronic DSS colitis): lower; fecal occult blood, in words ([2]; sub-acute or chronic DSS colitis, day 14th and 22nd, compared with untreated DSS mice): more severe; DAI, in words [3]: markedly higher than untreated DSS group; histological score, in words [3]: markedly higher than untreated DSS group; damage of articular cartilage, meniscus and bone structure of knee joints [4]: exacerbated |
| CC(C)(C)NC[C@@H](O)c1cc(O)cc(O)c1 [S-T, S-terbutaline] | 7 ± 1 | 4 ± 0.5 | 80 ± 2.9 | 12 | 5.9 ± 0.5 | much worse than untreated DSS mice | colon histology (H&E), in words [1]: no signs of improvements; DAI, in words [2, 9]: much worse than untreated DSS mice |
| CC(C)(C)NC[C@@H](O)c1cc(Cl)c(N)c(Cl)c1 [S-clenbuterol] |  |  |  |  |  | much worse than untreated DSS mice | DAI, in words [2, 9]: much worse than untreated DSS mice |
| COc1ccc2c(c1)c(CC(=O)O)c(C)n2C(=O)c1ccc(Cl)cc1 [indomethacin, reference compound] |  |  |  |  |  |  | erythema score of both ears [5, 10]: lesser effects; thickness score of both ears [5, 10]: lesser effects; eczema histology and inflammatory infiltration ([5]; dose-dependent response): little effects on eczema |
| infliximab |  |  |  |  |  |  | submucosa fibrosis and narrowing of intestinal lumen [6]: enhanced the submucosa fibrosis and lumen narrowing; submucosa fibrosis and narrowing of intestinal lumen ([6]; listed as IFX): significant submucosa fibrosis and narrowing in lumen |
